Tests used:
Assay in all cases: relative viability (nuclei count vs DMSO), 5 days (fraction); higher = more cells survive
Avagacestat + Foretinib = compound: NC(=O)[C@@H](CCC(F)(F)F)N(Cc1ccc(-c2ncon2)cc1F)S(=O)(=O)c1ccc(Cl)cc1 [Avagacestat] + COc1cc2c(Oc3ccc(NC(=O)C4(C(=O)Nc5ccc(F)cc5)CC4)cc3F)ccnc2cc1OCCCN1CCOCC1 [Foretinib] (partner 0.25 µM)
Summary of the method: (§1)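 Dosing by pin tool came one day after lung cancer cell lines were seeded in 1536-well plates, using either one drug or a fixed anchor-drug dose plus five library-drug doses (not always all listed) in √10 steps. After 5 days, nuclei were counted on 4× images. Relative viability is treated-well nuclei count divided by vehicle-well nuclei count, and values are medians of duplicate plates.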

Avagacestat + Vorinostat = compound: NC(=O)[C@@H](CCC(F)(F)F)N(Cc1ccc(-c2ncon2)cc1F)S(=O)(=O)c1ccc(Cl)cc1 [Avagacestat] + O=C(CCCCCCC(=O)Nc1ccccc1)NO [Vorinostat] (partner 1 µM)
Summary of the method: as §1

Avagacestat + AZD7762 = compound: NC(=O)[C@@H](CCC(F)(F)F)N(Cc1ccc(-c2ncon2)cc1F)S(=O)(=O)c1ccc(Cl)cc1 [Avagacestat] + NC(=O)Nc1cc(-c2cccc(F)c2)sc1C(=O)N[C@H]1CCCNC1 [AZD7762] (partner 0.2 µM)
Summary of the method: as §1

Avagacestat + Pictilisib = compound: NC(=O)[C@@H](CCC(F)(F)F)N(Cc1ccc(-c2ncon2)cc1F)S(=O)(=O)c1ccc(Cl)cc1 [Avagacestat] + CS(=O)(=O)N1CCN(Cc2cc3nc(-c4cccc5[nH]ncc45)nc(N4CCOCC4)c3s2)CC1 [Pictilisib] (partner 1 µM)
Summary of the method: as §1

Cell Line	relative viability (Avagacestat + Foretinib; first compound 0.08 µM)	relative viability (Avagacestat + Foretinib; first compound 0.253 µM)	relative viability (Avagacestat + Foretinib; first compound 0.8 µM)	relative viability (Avagacestat + Foretinib; first compound 2.53 µM)	relative viability (Avagacestat + Foretinib; first compound 8 µM)	relative viability (Avagacestat + Vorinostat; first compound 0.08 µM)	relative viability (Avagacestat + Vorinostat; first compound 0.253 µM)	relative viability (Avagacestat + Vorinostat; first compound 0.8 µM)	relative viability (Avagacestat + Vorinostat; first compound 2.53 µM)	relative viability (Avagacestat + Vorinostat; first compound 8 µM)	relative viability (Avagacestat + AZD7762; first compound 0.08 µM)	relative viability (Avagacestat + AZD7762; first compound 0.253 µM)	relative viability (Avagacestat + AZD7762; first compound 0.8 µM)	relative viability (Avagacestat + AZD7762; first compound 2.53 µM)	relative viability (Avagacestat + AZD7762; first compound 8 µM)	relative viability (Avagacestat + Pictilisib; first compound 0.08 µM)	relative viability (Avagacestat + Pictilisib; first compound 0.253 µM)	relative viability (Avagacestat + Pictilisib; first compound 0.8 µM)	relative viability (Avagacestat + Pictilisib; first compound 2.53 µM)	relative viability (Avagacestat + Pictilisib; first compound 8 µM)
NCI-H23	1.11	1.17	0.925	1.14	0.93	0.921	0.66	0.665	0.69	0.592	0.227	0.229	0.219	0.282	0.225	0.523	0.453	0.472	0.475	0.555
NCI-H2126	1.53	1.21	1.34	1.06	1.02	0.792	0.715	0.842	0.711	0.753	1.02	0.979	1.01	0.912	1.02	0.521	0.461	0.487	0.477	0.463
LXF-289	1.04	0.957	0.992	0.982	0.893	0.954	0.884	0.791	0.921	0.86	1.13	1.08	1.09	1.16	0.971	0.786	0.857	0.781	0.753	0.66
NCI-H1437	1.42	1.41	1.27	1.23	1.11	1.03	1.12	1.11	0.893	0.728	1.16	1.15	1.02	1.09	0.906	0.388	0.399	0.417	0.399	0.366
NCI-H661	1.04	1.17	1.07	0.974	1.08	0.845	0.98	0.827	0.784	0.785	–	–	–	–	–	0.435	0.38	0.487	–	0.471
COR-L23	1.12	1.28	1.1	0.901	0.952	0.474	0.457	0.484	0.366	0.332	–	–	–	–	–	1.07	0.878	0.774	0.653	0.397
UMC-11	1.19	1.15	1.26	1.13	1.06	0.388	0.396	0.398	0.396	0.412	–	–	–	–	–	0.966	0.747	0.964	0.844	0.867
NCI-H1299	1.07	1.12	1.15	1.09	1.12	–	–	–	–	–	–	–	–	–	–	0.806	1.19	0.81	0.736	0.578
SK-MES-1	0.92	0.808	1.03	0.666	0.619	1.12	1.35	1.29	1.06	1.02	–	–	–	–	–	0.377	0.387	0.306	0.294	0.288
HCC-44	–	–	–	–	–	1.09	1.14	1.19	1.07	1.21	0.923	1.04	1.03	1.01	1.18	0.548	0.782	0.588	0.484	0.569
NCI-H2023	0.857	0.892	1	0.847	0.65	0.625	0.554	0.617	0.471	0.6	–	–	–	–	–	0.249	0.225	0.255	0.184	0.185
NCI-H1703	0.315	0.318	0.384	0.338	0.308	–	–	–	–	–	0.123	0.143	0.115	0.112	0.124	0.305	0.242	0.226	0.217	0.225
COR-L 105	1.17	1.25	1.36	0.927	0.698	1.08	0.891	0.87	0.792	0.884	–	–	–	–	–	0.38	0.447	0.326	0.319	0.419
SK-LU-1	0.993	0.879	0.852	0.575	0.66	0.885	0.714	0.865	0.636	0.71	–	–	–	–	–	0.628	0.526	0.586	–	0.354
NCI-H2009	1.31	1.39	1.24	1.24	1.21	0.704	0.876	0.733	0.722	0.694	–	–	–	–	–	0.986	0.946	0.983	0.808	0.778
NCI-H1650	1.47	1.11	1.06	1.04	1.09	0.593	0.692	0.51	0.599	0.67	–	–	–	–	–	0.693	0.577	0.552	0.542	0.476
EBC-1	0.114	0.113	0.123	0.11	0.107	–	–	–	–	–	–	–	–	–	–	0.429	0.331	0.413	0.362	0.327
SW 1573	0.917	0.866	0.88	0.867	1.02	0.933	0.672	1.05	0.624	0.672	–	–	–	–	–	0.771	0.625	0.524	0.492	0.444
NCI-H2228	1.07	1.1	0.941	0.773	0.793	0.752	0.787	0.569	0.641	0.511	–	–	–	–	–	0.431	0.498	0.556	0.346	0.349
Calu-6	1.12	0.949	0.979	0.905	0.845	–	–	–	–	–	–	–	–	–	–	1.3	1.03	1.18	0.913	1.02
IA-LM	1.76	1.68	1.71	1.37	1.4	1.56	1.59	1.51	0.957	0.992	–	–	–	–	–	1.1	1.02	0.711	0.802	0.525
